Species on record: Rattus norvegicus
Test: Open TG-GATES - Regimen: Single
Assay type: toxicity, organism-based, Sprague-Dawley
Design: regimen Single, gender Male, age 6 weeks
Conditions: in vivo, po, 300 mg/kg, route gavage, dose level Middle; for APTT / Bas / Eos / Fbg / Hb / Ht / Lym / MCH / MCHC / MCV / Mono / Neu / PT / Plat / RBC / Ret / WBC: tissue Blood; for KIDNEY_L / KIDNEY_R / KIDNEY_TOTAL: tissue Kidney; for LIVER: tissue Liver; for A/G / ALP / ALT / AST / BUN / CRE / Ca / Cl / DBIL / GLC / IP / K / LDH / Na / PL / RALB / TBIL / TC / TG / TP / gamma-GTP: tissue Plasma

## CC(C)(S)[C@@H](N)C(=O)O [PENICILLAMINE]
3 h
  TERMINAL_BW: 203.8 g
  APTT: 16.5 s
  Bas: 0%
  Eos: 0.8%
  Fbg: 315.2 mg/dL
  Hb: 13.2 g/dL
  Ht: 40.7%
  Lym: 75.4%
  MCH: 20.9 pg
  MCHC: 32.3%
  MCV: 64.7 fL
  Mono: 3.8%
  Neu: 19.4%
  PT: 15.1 s
  Plat: 123.1 x10_4/uL
  RBC: 629.8 x10_4/ul
  Ret: 9%
  WBC: 73.3 x10_2/uL
  KIDNEY_L: 0.8 g
  KIDNEY_R: 0.9 g
  KIDNEY_TOTAL: 1.7 g
  LIVER: 8.6 g
  A/G: 0.9
  ALP: 1102.4 IU/L
  ALT: 43.6 IU/L
  AST: 73.4 IU/L
  BUN: 8.4 mg/dL
  CRE: 0.2 mg/dL
  Ca: 10.9 mg/dL
  Cl: 106.2 meq/L
  DBIL: 0.01 mg/dL
  GLC: 175 mg/dL
  IP: 8.4 mg/dL
  K: 4.3 meq/L
  LDH: 57.4 IU/L
  Na: 142.6 meq/L
  PL: 139.2 mg/dL
  RALB: 2.5 g/dL
  TBIL: 0.034 mg/dL
  TC: 73.8 mg/dL
  TG: 87.8 mg/dL
  TP: 5.3 g/dL
  gamma-GTP: 1 IU/L
6 h
  TERMINAL_BW: 200.3 g
  APTT: 14.8 s
  Bas: 0%
  Eos: 0.8%
  Fbg: 313.6 mg/dL
  Hb: 13.4 g/dL
  Ht: 41.5%
  Lym: 74.6%
  MCH: 20.4 pg
  MCHC: 32.3%
  MCV: 63.4 fL
  Mono: 3%
  Neu: 20.6%
  PT: 14.6 s
  Plat: 121.5 x10_4/uL
  RBC: 655.4 x10_4/ul
  Ret: 8.7%
  WBC: 87.9 x10_2/uL
  KIDNEY_L: 0.9 g
  KIDNEY_R: 0.9 g
  KIDNEY_TOTAL: 1.8 g
  LIVER: 8.2 g
  A/G: 0.9
  ALP: 1066.8 IU/L
  ALT: 36.6 IU/L
  AST: 72 IU/L
  BUN: 8.2 mg/dL
  CRE: 0.2 mg/dL
  Ca: 10.7 mg/dL
  Cl: 106.2 meq/L
  DBIL: 0.012 mg/dL
  GLC: 182.8 mg/dL
  IP: 9.5 mg/dL
  K: 4.4 meq/L
  LDH: 60.8 IU/L
  Na: 142.8 meq/L
  PL: 139.6 mg/dL
  RALB: 2.5 g/dL
  TBIL: 0.038 mg/dL
  TC: 79.2 mg/dL
  TG: 47.4 mg/dL
  TP: 5.2 g/dL
  gamma-GTP: 1 IU/L
9 h
  TERMINAL_BW: 198.7 g
  APTT: 16.2 s
  Bas: 0%
  Eos: 0.8%
  Fbg: 304.8 mg/dL
  Hb: 13.2 g/dL
  Ht: 40.9%
  Lym: 76.8%
  MCH: 20.8 pg
  MCHC: 32.2%
  MCV: 64.4 fL
  Mono: 3%
  Neu: 18.6%
  PT: 15.2 s
  Plat: 120.8 x10_4/uL
  RBC: 634.2 x10_4/ul
  Ret: 8.9%
  WBC: 73.6 x10_2/uL
  KIDNEY_L: 0.9 g
  KIDNEY_R: 0.9 g
  KIDNEY_TOTAL: 1.7 g
  LIVER: 7.7 g
  A/G: 0.9
  ALP: 1040.2 IU/L
  ALT: 32.8 IU/L
  AST: 67 IU/L
  BUN: 8 mg/dL
  CRE: 0.2 mg/dL
  Ca: 10.6 mg/dL
  Cl: 107.2 meq/L
  DBIL: 0.01 mg/dL
  GLC: 175.4 mg/dL
  IP: 9.9 mg/dL
  K: 4 meq/L
  LDH: 58 IU/L
  Na: 142.8 meq/L
  PL: 128.8 mg/dL
  RALB: 2.5 g/dL
  TBIL: 0.042 mg/dL
  TC: 73.6 mg/dL
  TG: 39.4 mg/dL
  TP: 5.2 g/dL
  gamma-GTP: 1 IU/L
24 h
  TERMINAL_BW: 216.3 g
  APTT: 15.1 s
  Bas: 0.2%
  Eos: 1%
  Fbg: 290.8 mg/dL
  Hb: 13.5 g/dL
  Ht: 41.5%
  Lym: 82.2%
  MCH: 21.1 pg
  MCHC: 32.5%
  MCV: 64.7 fL
  Mono: 3%
  Neu: 12.6%
  PT: 14 s
  Plat: 123.4 x10_4/uL
  RBC: 640.6 x10_4/ul
  Ret: 8.3%
  WBC: 101.5 x10_2/uL
  KIDNEY_L: 0.9 g
  KIDNEY_R: 0.9 g
  KIDNEY_TOTAL: 1.8 g
  LIVER: 10.1 g
  A/G: 0.9
  ALP: 1515 IU/L
  ALT: 39.2 IU/L
  AST: 65.8 IU/L
  BUN: 13.4 mg/dL
  CRE: 0.2 mg/dL
  Ca: 11.1 mg/dL
  Cl: 105.6 meq/L
  DBIL: 0.012 mg/dL
  GLC: 172.4 mg/dL
  IP: 8.2 mg/dL
  K: 4.1 meq/L
  LDH: 79.4 IU/L
  Na: 144.2 meq/L
  PL: 164.8 mg/dL
  RALB: 2.6 g/dL
  TBIL: 0.028 mg/dL
  TC: 86.6 mg/dL
  TG: 126 mg/dL
  TP: 5.5 g/dL
  gamma-GTP: 1.2 IU/L

From ChEMBL document CHEMBL3885861, “Open TG-GATES”
